# Assays:
# [1] = Half life in rat at 10 mg/kg, iv infusion; type: ADME, organism-based; parameters: dose 10 mg/kg, route intravenous; conditions: in vivo
# [2] = Metabolic stability of the compound in dog liver microsomes assessed as compound remaining at 3 uM after 30 mins; type: ADME, Canis lupus familiaris, Microsome; conditions: read-out: Stability
# [3] = Volume of distribution at steady state in cynomolgus monkey at 1 mg/kg, iv bolus; type: ADME, organism-based, Macaca fascicularis; parameters: dose 1 mg/kg, route intravenous; conditions: in vivo, read-out: Vdss
# [4] = Thermodynamic solubility of the compound at pH 5; type: physicochemical; conditions: buffer, read-out: Therm_solubility
# [5] = Volume of distribution at steady state in rat at 10 mg/kg, iv infusion; type: ADME, organism-based; parameters: dose 10 mg/kg, route intravenous; conditions: in vivo, read-out: Vdss
# [6] = target: CYP3A4 (Homo sapiens, UniProt P08684); assay: Drug metabolism assessed as CYP3A4-mediated compound loss after 30 mins; type: ADME; conditions: recombinant enzyme; read-out: Drug metabolism
# Sequence of CYP3A4 (P08684 whole entry): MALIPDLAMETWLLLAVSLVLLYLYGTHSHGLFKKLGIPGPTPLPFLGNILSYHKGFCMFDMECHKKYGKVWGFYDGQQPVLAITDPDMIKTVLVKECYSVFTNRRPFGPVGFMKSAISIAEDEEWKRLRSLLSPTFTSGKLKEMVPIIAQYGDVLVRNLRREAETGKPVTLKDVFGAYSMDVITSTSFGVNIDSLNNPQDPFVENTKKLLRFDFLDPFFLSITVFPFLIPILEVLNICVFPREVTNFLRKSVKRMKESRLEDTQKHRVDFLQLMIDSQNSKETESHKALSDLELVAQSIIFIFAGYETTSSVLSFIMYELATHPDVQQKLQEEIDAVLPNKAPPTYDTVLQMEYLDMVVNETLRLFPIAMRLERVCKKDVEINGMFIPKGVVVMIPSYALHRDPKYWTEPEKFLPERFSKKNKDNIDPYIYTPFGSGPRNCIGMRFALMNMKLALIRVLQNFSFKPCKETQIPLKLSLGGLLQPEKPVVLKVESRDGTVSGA
# [7] = target: Mitogen-activated protein kinase 14 (Homo sapiens, UniProt Q16539); assay: Inhibition of p38alpha using MBP and [gamma33P]ATP as substrate after 60 mins by scintillation counting
# Sequence of Mitogen-activated protein kinase 14 (Q16539 whole entry, the tested form may be a part): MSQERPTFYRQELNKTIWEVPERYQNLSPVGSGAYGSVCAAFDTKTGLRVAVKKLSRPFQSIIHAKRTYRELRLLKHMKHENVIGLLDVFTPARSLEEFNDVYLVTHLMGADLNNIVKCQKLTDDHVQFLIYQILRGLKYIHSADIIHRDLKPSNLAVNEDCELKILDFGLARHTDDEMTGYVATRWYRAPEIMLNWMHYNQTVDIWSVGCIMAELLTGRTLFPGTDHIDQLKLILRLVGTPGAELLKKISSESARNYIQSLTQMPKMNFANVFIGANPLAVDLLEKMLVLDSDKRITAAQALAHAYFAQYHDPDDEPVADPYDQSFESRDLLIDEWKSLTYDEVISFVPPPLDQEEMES
# [8] = Clearance in rat at 10 mg/kg, iv infusion; type: ADME, organism-based; parameters: dose 10 mg/kg, route intravenous; conditions: in vivo
# [9] = target: Cytochrome P450 3A4 (Homo sapiens, UniProt P08684); assay: Inhibition of recombinant CYP3A4 up to 30 uM; type: ADME; conditions: recombinant enzyme
# Sequence of Cytochrome P450 3A4 (P08684 whole entry): as the sequence (P08684 whole entry) above
# [10] = target: Mitogen-activated protein kinase 8 (Homo sapiens, UniProt P45983); assay: Inhibition of full length Hexa-His-tagged JNK1 using GST-tagged cJun and [gamma33P]ATP as substrate after 60 mins by scintillation counting
# Sequence of Mitogen-activated protein kinase 8 (P45983 whole entry): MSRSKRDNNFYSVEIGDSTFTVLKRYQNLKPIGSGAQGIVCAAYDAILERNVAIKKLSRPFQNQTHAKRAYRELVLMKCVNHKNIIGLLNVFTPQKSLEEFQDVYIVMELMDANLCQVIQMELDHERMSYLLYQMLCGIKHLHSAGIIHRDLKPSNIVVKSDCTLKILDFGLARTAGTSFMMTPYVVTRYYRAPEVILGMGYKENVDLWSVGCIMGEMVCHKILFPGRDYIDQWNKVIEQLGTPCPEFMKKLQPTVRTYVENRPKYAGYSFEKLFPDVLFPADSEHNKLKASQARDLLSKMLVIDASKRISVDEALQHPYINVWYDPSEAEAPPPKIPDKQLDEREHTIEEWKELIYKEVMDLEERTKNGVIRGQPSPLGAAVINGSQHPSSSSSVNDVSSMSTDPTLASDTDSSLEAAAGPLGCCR
# [11] = target: Cytochrome P450 2C9 (Homo sapiens, UniProt P11712); assay: Inhibition of recombinant CYP2C9 up to 30 uM; type: ADME; conditions: recombinant enzyme
# Sequence of Cytochrome P450 2C9 (P11712 whole entry): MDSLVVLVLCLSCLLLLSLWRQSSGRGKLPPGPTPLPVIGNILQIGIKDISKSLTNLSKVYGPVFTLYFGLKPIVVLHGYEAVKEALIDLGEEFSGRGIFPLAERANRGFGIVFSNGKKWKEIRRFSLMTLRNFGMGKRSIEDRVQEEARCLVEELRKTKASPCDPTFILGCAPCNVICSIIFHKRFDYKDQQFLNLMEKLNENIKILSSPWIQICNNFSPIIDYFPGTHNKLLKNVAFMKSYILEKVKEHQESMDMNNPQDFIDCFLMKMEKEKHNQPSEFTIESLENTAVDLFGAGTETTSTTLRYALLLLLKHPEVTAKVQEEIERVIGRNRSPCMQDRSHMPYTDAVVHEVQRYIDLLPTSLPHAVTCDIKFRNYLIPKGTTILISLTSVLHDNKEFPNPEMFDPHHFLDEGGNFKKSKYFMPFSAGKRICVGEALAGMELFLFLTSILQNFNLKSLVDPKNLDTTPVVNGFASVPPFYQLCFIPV
# [12] = test system: Salmonella typhimurium; assay: Induction of mutagenesis in Salmonella Typhimurium by Ames test; type: toxicity, organism-based; conditions: salmonella enterica subsp. enterica serovar typhimurium
# [13] = target: c-Jun N-terminal kinase, JNK (Homo sapiens, UniProt P45983+P53779+P45984); assay: Inhibition of JNK-mediated cJun phosphorylation in anisomysin-stimulated human Jurkat T cells pretreated for 30 mins before anisomysin stimulation measured after 10 mins by DELFIA assay; type: cell-based
# [14] = Metabolic stability of the compound in rat liver microsomes assessed as compound remaining at 3 uM after 30 mins; type: ADME, Microsome; conditions: read-out: Stability
# [15] = test system: Rattus norvegicus; assay: Antiischemic activity in Lewis rat ischemia reperfusion model assessed as increase in survival rate at 10 mg/kg, iv bolus administered 15 mins before ischemia challenge relative to control; type: functional
compound,measurement,setting,value
N[C@H]1CC[C@H](Nc2ncc3nc(Nc4ccc(F)cc4F)n(C4CCCC4)c3n2)CC1,half-life,[1],10 h
same,"remaining at 0.5 h, 3 µM",[2],100%
same,Vd,[3],11 L/kg
same,solubility thermodynamic,[4],792 µg/mL
same,Vd,[5],55 L/kg
same,metabolised at 0.5 h,[6],10%
same,IC50,[7],0.22 µM
same,clearance,[8],83 mL/min/kg
same,inhibition (INH),[9],Not Active
same,IC50,[10],0.27 µM
same,inhibition (INH),[11],Not Active
same,Activity,[12],Non-toxic
same,IC50,[13],0.35 µM
same,"remaining at 0.5 h, 3 µM",[14],92%
same,survival at 10 mg/kg,[15],80%
